Source: the NIST ThermoML archive (doi:10.1016/j.tca.2009.06.004)

Assay: excess molar enthalpy (molar enthalpy of mixing); xn = mol fraction of the nth substance listed
Conditions: 298.15 K, 101 kPa, Liquid, Calvet calorimetry

OCCOCCOCCO [triethylene glycol] + CCO
Conditions | excess molar enthalpy [kcal/mol]
x2 = 0.104 | 0.028
x2 = 0.2042 | 0.0586
x2 = 0.301 | 0.0837
x2 = 0.399 | 0.104
x2 = 0.5002 | 0.118
x2 = 0.599 | 0.121
x2 = 0.6993 | 0.112
x2 = 0.7995 | 0.0963
x2 = 0.8992 | 0.0621

OCCOCCOCCO [triethylene glycol] + O
Conditions | excess molar enthalpy [kcal/mol]
x2 = 0.1291 | -0.105
x2 = 0.2167 | -0.188
x2 = 0.3145 | -0.258
x2 = 0.4016 | -0.32
x2 = 0.5006 | -0.384
x2 = 0.6006 | -0.431
x2 = 0.6999 | -0.448
x2 = 0.7985 | -0.422
x2 = 0.9013 | -0.312

OCCO [1,2-ethanediol] + O
Conditions | excess molar enthalpy [kcal/mol]
x2 = 0.1014 | -0.0416
x2 = 0.1994 | -0.0805
x2 = 0.2091 | -0.0829
x2 = 0.3051 | -0.115
x2 = 0.3674 | -0.134
x2 = 0.3995 | -0.141
x2 = 0.4807 | -0.153
x2 = 0.5455 | -0.159
x2 = 0.6144 | -0.167
x2 = 0.669 | -0.171
x2 = 0.7949 | -0.163
x2 = 0.8656 | -0.136
x2 = 0.915 | -0.101

OCCOCCO [diethylene glycol] + CCO
Conditions | excess molar enthalpy [kcal/mol]
x2 = 0.1048 | 0.0182
x2 = 0.1991 | 0.0308
x2 = 0.2967 | 0.0461
x2 = 0.4009 | 0.0595
x2 = 0.4963 | 0.0626
x2 = 0.5879 | 0.0669
x2 = 0.7041 | 0.0602
x2 = 0.7958 | 0.0488
x2 = 0.9006 | 0.0289

OCCOCCO [diethylene glycol] + O
Conditions | excess molar enthalpy [kcal/mol]
x2 = 0.1026 | -0.0657
x2 = 0.2012 | -0.122
x2 = 0.2094 | -0.125
x2 = 0.3067 | -0.177
x2 = 0.4068 | -0.223
x2 = 0.4937 | -0.248
x2 = 0.5018 | -0.255
x2 = 0.6003 | -0.285
x2 = 0.6996 | -0.298
x2 = 0.7998 | -0.28
x2 = 0.8999 | -0.205
x2 = 0.9002 | -0.207
x2 = 0.9498 | -0.129

OCC(O)CO [glycerol] + O
Conditions | excess molar enthalpy [kcal/mol]
x2 = 0.1028 | -0.0363
x2 = 0.2192 | -0.0698
x2 = 0.3038 | -0.0925
x2 = 0.3964 | -0.113
x2 = 0.5022 | -0.131
x2 = 0.5956 | -0.143
x2 = 0.6991 | -0.146
x2 = 0.8005 | -0.134
x2 = 0.8995 | -0.087
